Some test systems named below: UO-31 renal; NCI-H23 lung; SF-268 CNS; SK-MEL-2 melanoma; OVCAR-3 ovarian; HCT-116 colon; NCI/ADR-RES ovarian; K-562 leukemia; SF-295 CNS; OVCAR-4 ovarian; KM12 colon; SF-539 CNS; HT29 colon; CCRF-CEM leukemia; HL-60(TB) leukemia.
Test in all cases: NCI anticancer screen, dose series, 48 h

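Each compound was tested at five concentrations against cells in 96-well plates for 48 hours. TGI: concentration producing complete growth inhibition.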 Some results are limits rather than exact numbers.

As to `COC(=O)[C@H](Cc1ccccc1)NC(=O)N(CCC#N)CCCCN(CCC#N)C(=O)N[C@@H](Cc1ccccc1)C(=O)OC`, the TGI with UO-31 renal, in the assay with NCI-H23 lung, in the assay with SF-268 CNS, in the assay on SK-MEL-2 melanoma, with OVCAR-3 ovarian and in the assay on HCT-116 colon was > 100 µM throughout. Besides, the TGI in the assay on NCI/ADR-RES ovarian, with K-562 leukemia, in the assay on SF-295 CNS, with OVCAR-4 ovarian and in the assay with KM12 colon was > 100 µM in each case.

With `N#CCCN(CCC#N)c1ccc(C(N=Nc2ccc(Cl)cc2)=Nc2ccccc2)cc1`, the TGI in the assay on UO-31 renal amounted to 21.3 µM; in the assay with NCI-H23 lung, 25.7 µM; in the assay with SF-268 CNS, 27.1 µM; in the assay on SK-MEL-2 melanoma, 13.9 µM; in the assay with OVCAR-3 ovarian, 22.1 µM; in the assay on HCT-116 colon, 24.4 µM. The TGI was 24.2 µM in the assay with NCI/ADR-RES ovarian; > 100 µM in the assay on K-562 leukemia; 29.1 µM in the assay on SF-539 CNS; 12 µM with SF-295 CNS; 34.3 µM with HT29 colon; 26 µM in the assay with OVCAR-4 ovarian. The molecule also displayed a TGI with KM12 colon of 31.3 µM.

Turning to `Cc1ccc(S(=O)(=O)N2CCCSCCSCCCN(S(=O)(=O)c3ccc(C)cc3)CC2)cc1`, the TGI in the assay on UO-31 renal, in the assay on NCI-H23 lung, in the assay with SF-268 CNS, in the assay on SK-MEL-2 melanoma, with OVCAR-3 ovarian and in the assay with HCT-116 colon was > 100 µM in each case. Moreover, the TGI with NCI/ADR-RES ovarian, in the assay with SF-539 CNS, with SF-295 CNS, with HT29 colon, with OVCAR-4 ovarian and with KM12 colon was > 100 µM throughout.

Take `N#C/C(c1nc2ccccc2[nH]1)=c1\s/c(=C(/N)O)c(=N)n1-c1ccccc1`: the TGI with UO-31 renal, with NCI-H23 lung, in the assay on SF-268 CNS, with SK-MEL-2 melanoma, with OVCAR-3 ovarian and in the assay on HCT-116 colon was > 100 µM throughout. Further, the TGI with K-562 leukemia, in the assay on SF-539 CNS, with SF-295 CNS, in the assay on CCRF-CEM leukemia, with HT29 colon and in the assay on OVCAR-4 ovarian was > 100 µM in each case. The TGI in the assay on HL-60(TB) leukemia is > 100 µM.

Turning to `COc1ccc2c3c([nH]c(=O)c2c1C(=O)O)-c1ccccc1CC3`, the TGI in the assay with UO-31 renal, with NCI-H23 lung, with SF-268 CNS, in the assay on SK-MEL-2 melanoma, in the assay with OVCAR-3 ovarian and in the assay with HCT-116 colon was > 100 µM in each case. Moreover, the TGI in the assay on K-562 leukemia, with SF-539 CNS, in the assay on SF-295 CNS, in the assay on CCRF-CEM leukemia, in the assay on HT29 colon and in the assay on OVCAR-4 ovarian was > 100 µM in each case. The TGI in the assay on HL-60(TB) leukemia and with KM12 colon was > 100 µM in each case.

For `COc1ccc2c(c1)CC1COc3cc(OC)ccc3C1O2` (configuration not stated), the TGI in the assay on UO-31 renal, in the assay on NCI-H23 lung, in the assay with SF-268 CNS, in the assay on SK-MEL-2 melanoma, in the assay on OVCAR-3 ovarian and in the assay on HCT-116 colon was > 100 µM in each case. Further, the TGI in the assay with NCI/ADR-RES ovarian, in the assay with SF-539 CNS, in the assay with SF-295 CNS, in the assay with CCRF-CEM leukemia, in the assay with HT29 colon and in the assay with KM12 colon was > 100 µM each time.

In the case of `CC(C)(C)C1CCC2c3c([nH]c4ncccc34)C3C(=O)N(c4ccccc4)C(=O)C3C2C1` (configuration not stated), the TGI with UO-31 renal, with NCI-H23 lung, with SF-268 CNS, in the assay with SK-MEL-2 melanoma, with OVCAR-3 ovarian and in the assay with HCT-116 colon was > 100 µM throughout. The TGI in the assay on K-562 leukemia, in the assay with SF-539 CNS, in the assay with SF-295 CNS, in the assay with CCRF-CEM leukemia, in the assay on HT29 colon and in the assay on OVCAR-4 ovarian was > 100 µM throughout. Also, the TGI with HL-60(TB) leukemia and in the assay on KM12 colon was > 100 µM each time.

Turning to `CSc1nc(Nc2ccccc2Cl)c2c(N)nn(C)c2n1`, the TGI in the assay on UO-31 renal, with NCI-H23 lung, with SF-268 CNS, in the assay on SK-MEL-2 melanoma, in the assay with OVCAR-3 ovarian and with HCT-116 colon was > 100 µM in each case. For the same molecule, the TGI in the assay on NCI/ADR-RES ovarian, in the assay with K-562 leukemia, in the assay with SF-295 CNS, with CCRF-CEM leukemia, with HT29 colon and with OVCAR-4 ovarian was > 100 µM in each case. For the same molecule, the TGI with KM12 colon is > 100 µM.

As for `CC(=O)NC1C(OC(C)C(=O)NC(C(=O)NC(CCC(=O)NCCCNC2c3ccccc3Nc3cccc([N+](=O)[O-])c32)C(N)=O)C(C)C)C(O)C(CO)OC1(C)OCc1ccccc1` (configuration not stated), the TGI came out at 2.73 µM in the assay on UO-31 renal; 3.3 µM in the assay with NCI-H23 lung; 3.3 µM in the assay with SF-268 CNS; 3.56 µM in the assay on SK-MEL-2 melanoma; 2.85 µM in the assay with OVCAR-3 ovarian; 1.3 µM in the assay with HCT-116 colon. Besides, the TGI with NCI/ADR-RES ovarian worked out at 4.76 µM; in the assay on K-562 leukemia, 7.65 µM; with SF-295 CNS, 3.23 µM; with CCRF-CEM leukemia, 4.59 µM; in the assay on HT29 colon it was 0.417 µM; with OVCAR-4 ovarian, 3.64 µM. The TGI in the assay with KM12 colon amounted to 3.48 µM.

With `O=C(c1ccco1)N(C(=S)N1CCN(c2ccccc2)CC1)C1CCCCC1`, the TGI with UO-31 renal, with NCI-H23 lung, in the assay with SF-268 CNS, in the assay on SK-MEL-2 melanoma, in the assay on OVCAR-3 ovarian and in the assay on HCT-116 colon was > 100 µM throughout. Moreover, the TGI in the assay on K-562 leukemia, in the assay with SF-539 CNS, in the assay with SF-295 CNS, in the assay with CCRF-CEM leukemia, in the assay on HT29 colon and with OVCAR-4 ovarian was > 100 µM in each case. Besides, the TGI in the assay with HL-60(TB) leukemia and with KM12 colon was > 100 µM each time.

Regarding `[N-]=[N+]=NC1(c2ccccc2)C(=O)C(Cl)=C(c2ccccc2)N(c2ccccc2)C1=O` (configuration not stated), the TGI in the assay with UO-31 renal, with NCI-H23 lung, in the assay on SF-268 CNS, with SK-MEL-2 melanoma, in the assay with OVCAR-3 ovarian and in the assay with HCT-116 colon was > 100 µM each time. The TGI in the assay on K-562 leukemia, in the assay on SF-539 CNS, with SF-295 CNS, with CCRF-CEM leukemia, in the assay with HT29 colon and with OVCAR-4 ovarian was > 100 µM throughout. Also, the TGI in the assay with HL-60(TB) leukemia and in the assay with KM12 colon was > 100 µM throughout.

`COC1CC(OC2CCC3(C)C(=CCC4C3C(OC(C)=O)C(OC(=O)CC(C)C)C3(C)C(C(C)=O)CCC43O)C2)OC(C)C1OC1CC(OC)C(OC2CC(OC)C(OC3OC(C)C(O)C(OC)C3O)C(C)O2)C(C)O1` (configuration not stated): the TGI is > 100 µM in the assay on UO-31 renal; > 100 µM in the assay on NCI-H23 lung; > 100 µM in the assay with SF-268 CNS; 93.3 µM in the assay with SK-MEL-2 melanoma; > 100 µM in the assay on OVCAR-3 ovarian; 60.6 µM in the assay with HCT-116 colon. Further, the TGI in the assay on K-562 leukemia was > 100 µM; in the assay with SF-539 CNS it was 51.2 µM; in the assay with SF-295 CNS, > 100 µM; with CCRF-CEM leukemia it was 72.6 µM; in the assay with HT29 colon it was 42.8 µM; in the assay with OVCAR-4 ovarian, > 100 µM. For the same molecule, the TGI in the assay on HL-60(TB) leukemia was 74.5 µM; in the assay with KM12 colon, > 100 µM.

For the molecule `O=c1[nH]c2cc([N+](=O)[O-])ccc2nc1/C(=N/Nc1ccccc1)C(O)c1ccco1` (configuration not stated), the TGI in the assay with UO-31 renal, in the assay on SF-268 CNS, with SK-MEL-2 melanoma, in the assay on HCT-116 colon, in the assay with K-562 leukemia and in the assay on SF-539 CNS was > 100 µM each time. The TGI with SF-295 CNS, in the assay with CCRF-CEM leukemia, with HT29 colon, with OVCAR-4 ovarian, with HL-60(TB) leukemia and with KM12 colon was > 100 µM each time.

Turning to `COc1cc2c(oc(=O)c3c4occc4cc(OC)c23)c2cccc(OCc3ccccc3)c12`, the TGI with UO-31 renal, with NCI-H23 lung, in the assay on SF-268 CNS, in the assay with SK-MEL-2 melanoma, in the assay with OVCAR-3 ovarian and with HCT-116 colon was > 100 µM each time. Also, the TGI with K-562 leukemia, in the assay on SF-539 CNS, in the assay on SF-295 CNS, in the assay on CCRF-CEM leukemia, in the assay on HT29 colon and in the assay with OVCAR-4 ovarian was > 100 µM throughout. Also, the TGI in the assay with HL-60(TB) leukemia and in the assay on KM12 colon was > 100 µM throughout.

With `CCOC(=O)C(C)Sc1nnc(COc2ccc(Cl)cc2)n1-c1ccccc1` (configuration not stated), the TGI is 28 µM in the assay on UO-31 renal; 42.7 µM in the assay on NCI-H23 lung; 34.7 µM with SF-268 CNS; 28.4 µM in the assay with SK-MEL-2 melanoma; 33.5 µM in the assay on OVCAR-3 ovarian; 36.5 µM in the assay with HCT-116 colon. For the same molecule, the TGI in the assay with K-562 leukemia came to 49.9 µM; in the assay with SF-539 CNS, 36.9 µM; in the assay with SF-295 CNS, 85.4 µM; with CCRF-CEM leukemia it was 34 µM; with HT29 colon, 31.9 µM; in the assay with OVCAR-4 ovarian, 42.6 µM. Moreover, the TGI with HL-60(TB) leukemia amounted to 39.7 µM; with KM12 colon, 41.9 µM.
